According to patent US6806266B1 (priority 1999, dated 2004):
Like-named read-outs stand apart in the source and are kept apart here.

What was measured:
[1] = system: human epidermal cancer cell line A431; type: cell-based; details: A431 cells
Description: After the removal of the culture supernatant, the cells were washed with PBS(−), detached in an aqueous solution of 0.25% of Trypsin (GIBCO BRL) and 0.02% of ethylenediaminetetraacetic acid (Wako Pure Chemical Industries, Ltd.), then fixed at a density of 10^6 cells/mL with a 70% aqueous solution of ethanol and stored in a cold room at 4° C. Ethanol was removed by centrifugation from the fixed cells, and then the fixed cells were washed with PBS(−). The cells were treated at 37° C. for 30 minutes with a 0.25 mg/mL PBS(−)solution of ribonuclease A type 1-A (Sigma) containing 0.1% of Nonidet P-40 (Nacalai Tesque, Inc.), and then a solution of propidiumiodide (Sigma) in 0.1% NP-40/PBS(−) was added into the cells at a final concentration of 50 μg/mL, and the cells were stained in ice for at least 20 minutes.
A DNA histogram was taken by EPICS ELITE Flow Cytometer, and the cell cycle distribution was analyzed by use of MultiCycle Program.
In the method shown in Test Example 3, the G2 stage and the M stage of the cell cycle can not be distinguished from each other, and thus the distrubution of the G2 stage combined with that of the M stage (G2 stage+M stage) is expressed in percentage.

[2] = system: human lung cancer cell line A-549; assay: Test for inhibitory activity on cell growth in human lung cancer cell line A-549; details: A549, 72 h, read-out: Inhibitory activity on cell growth (IC50/μmol/L)
human AGP (hα1AGP) = type: binding; details: equimolar solution (20 μmol/L) of test compound and human AGP, PBS pH=7.4, 37° C., two hours after mixing with DCC; HPLC peak area ratio
Description: A solution of the test compound in DMSO was added to an isotonic phosphate buffer (PBS, pH=7.4) containing human AGP, to prepare an equimolar solution (20 μmol/L) of the test compound and human AGP. The solution was pre-incubated at 37° C. for 15 minutes and then mixed with an equal volume of 4 mg/mL of DCC in PBS, and incubation was further continued. After two hours from mixing, a part of the solution was sampled and centrifuged (4° C., 20000×g, 2 minutes) to precipitate the charcoal, and the supernatant was subjected to HPLC analysis. Separately, an equimolar solution (20 μmol/L) of the test compound and human AGP was mixed with an equal volume of PBS (pH=7.4), and then the mixed solution was subjected as a DCC-untreated sample to HPLC analysis. The ratio of the peak area of the DCC-treated sample to the average peak area of the DCC-untreated sample (the solution mixed with PBS) was calculated as the degree of binding (%).

[3] = Cisplatin 20 μmol/L + test compound 50 nmol/L, 8 hours

Structure (SMILES) | Cell cycle distribution (%) G1 stage ([1]; Cisplatin 20 μmol/L alone) [%] | Cell cycle distribution (%) G2 stage + M stage ([1]; Cisplatin 20 μmol/L alone) [%] | Cell cycle distribution (%) S stage ([1]; Cisplatin 20 μmol/L alone) [%] | accumulation action at the G2 stage or S stage (cell cycle distribution versus untreated group) ([1]; only Cisplatin (20 μmol/L)) | IC50 [2] [µmol/L] | Cell cycle distribution (%) G1 stage [1, 3] [%] | Cell cycle distribution (%) G2 stage + M stage [1, 3] [%] | Cell cycle distribution (%) S stage [1, 3] [%] | abrogation of accumulation action at the G2 stage and S stage ([1]; in combination with Cisplatin (20 μmol/L)) | Degree of binding to hα1AGP (%) (human AGP (hα1AGP))
N.N.[Cl][Pt][Cl] [Cisplatin] | 5.5 | 17.5 | 77.0 | An increase in the S stage, an increase in (G2 stage+M stage) and a decrease in the G1 stage | – | – | – | – | – | –
CN[C@@H]1C[C@H]2O[C@@](C)([C@@H]1OC)n1c3ccccc3c3c4c(c5c6ccccc6n2c5c31)C(=O)N[C@@H]4O [UCN-01] | – | – | – | – | 0.018 | 31.9 | 27.6 | 40.5 | a decrease in the S stage and an increase in the G1 stage | 76.8
